In PubChem BioAssay (NCI):
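All cell lines were grown in 96-well plates and treated with compound for 48 hours. TGI marks complete inhibition of growth.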

Columns and labels:
Experiment in all cases: DTP human tumour cell line panel, 48 h
RPMI-8226 leukemia = system: RPMI-8226 leukemia
UACC-257 melanoma = system: UACC-257 melanoma
SR leukemia = system: SR leukemia
HT29 colon = system: HT29 colon
HCT-15 colon = system: HCT-15 colon
OVCAR-8 ovarian = system: OVCAR-8 ovarian
OVCAR-5 ovarian = system: OVCAR-5 ovarian
UACC-62 melanoma = system: UACC-62 melanoma
SK-MEL-5 melanoma = system: SK-MEL-5 melanoma
HCC-2998 colon = system: HCC-2998 colon

| SMILES | TGI (RPMI-8226 leukemia) | TGI (UACC-257 melanoma) | TGI (SR leukemia) | TGI (HT29 colon) | TGI (HCT-15 colon) | TGI (OVCAR-8 ovarian) | TGI (OVCAR-5 ovarian) | TGI (UACC-62 melanoma) | TGI (SK-MEL-5 melanoma) | TGI (HCC-2998 colon) |
| --- | --- | --- | --- | --- | --- | --- | --- | --- | --- | --- |
| O=C1Oc2ccccc2C(=O)/C1=C/N1C(=O)N/C(=C\c2ccccc2O)C1=O | > 100 µM | > 100 µM | > 100 µM | > 100 µM | > 100 µM | > 100 µM | > 100 µM | > 100 µM | > 100 µM | > 100 µM |
| S=c1sc2c(Cl)ncnc2n1-c1ccccc1 | 56.7 µM | 33.6 µM | 9.36 µM | 24.1 µM | 28.4 µM | 31.6 µM | 53.8 µM | 21.4 µM | 29.7 µM | 31.1 µM |
| O=C(CSCC(=O)N/N=C/c1cc(I)cc(I)c1O)N/N=C/c1cc(I)cc(I)c1O | 61.5 µM | > 100 µM | 14 µM | > 100 µM | > 100 µM | 59.8 µM | 82.5 µM | 31.9 µM | 24.8 µM | 38.1 µM |
| O=c1cc(CNC2CCCC2)[nH]c(=O)[nH]1 | > 100 µM | > 100 µM | > 100 µM | > 100 µM | > 100 µM | > 100 µM | > 100 µM | > 100 µM | > 100 µM | > 100 µM |
| O=c1[nH]c(=O)n(C2CC(O)C(CO)O2)cc1I (stereo not given) | > 100 µM | > 100 µM | > 100 µM | > 100 µM | > 100 µM | > 100 µM | > 100 µM | > 100 µM | > 100 µM | > 100 µM |
| O=C1C2CCCCC2C(=O)N1n1c(Cc2ccc(Cl)cc2)n[nH]c1=O (stereo not given) | > 100 µM | > 100 µM | > 100 µM | > 100 µM | > 100 µM | > 100 µM | > 100 µM | > 100 µM | > 100 µM | > 100 µM |
| O=S(=O)(Oc1ccc2oc3ccccc3c2c1-c1c(OS(=O)(=O)C(F)(F)F)ccc2oc3ccccc3c12)C(F)(F)F | > 100 µM | > 100 µM | > 100 µM | > 100 µM | > 100 µM | > 100 µM | > 100 µM | > 100 µM | > 100 µM | > 100 µM |
| C=C(C)C(=O)CC[C@@H](C)[C@H]1[C@@H](OC2OC(CO)C(O)C(O)C2O)C[C@@]2(C)[C@@H]3C[C@H](O)C4C(C)(C)[C@@H](OC5OC(CO)C(O)C(O)C5O)CC[C@@]45C[C@@]35CC[C@]12C (stereo not given in full) | > 100 µM | > 100 µM | > 100 µM | > 100 µM | > 100 µM | > 100 µM | > 100 µM | > 100 µM | > 100 µM | > 100 µM |
| O=C(Cc1ccccc1)NCCc1ccc(O)c(O)c1 | > 100 µM | > 100 µM | 73.3 µM | > 100 µM | > 100 µM | > 100 µM | > 100 µM | > 100 µM | > 100 µM | > 100 µM |
| C=C1C(=O)OC2/C=C(\C)C(OC(C)=O)C3OC3C(C)(O)CC(OC(=O)/C(C)=C/C)C12 (stereo not given) | 28.2 µM | 28.8 µM | 23.2 µM | 32.7 µM | 30.8 µM | 24.4 µM | 32.3 µM | 23.5 µM | 27.4 µM | 21.3 µM |
| c1csc(-c2ccc(-c3ccc(-c4ccc(-c5cccs5)s4)s3)s2)c1 | > 100 µM | > 100 µM | > 100 µM | > 100 µM | > 100 µM | > 100 µM | > 100 µM | > 100 µM | > 100 µM | > 100 µM |
| Nc1nc(Cl)cc(NCC2(O)CC(CO)C2)n1 (stereo not given) | > 100 µM | > 100 µM | > 100 µM | > 100 µM | > 100 µM | > 100 µM | > 100 µM | > 100 µM | > 100 µM | > 100 µM |
| CN(C)c1nc2sc3c(c2c(=O)o1)CCCC3 | > 100 µM | > 100 µM | > 100 µM | > 100 µM | > 100 µM | > 100 µM | > 100 µM | > 100 µM | > 100 µM | > 100 µM |
| COCOc1ccc(C(=O)C(C)c2ccc(OCOC)cc2OCOC)c(O)c1 (stereo not given) | > 100 µM | > 100 µM | > 100 µM | > 100 µM | > 100 µM | > 100 µM | > 100 µM | > 100 µM | > 100 µM | > 100 µM |
| COC(=O)C(=O)C(C(=O)Nc1cccc(C)c1C)C1Sc2ccccc2NC1=O (stereo not given) | > 25 µM | > 25 µM | > 25 µM | > 25 µM | > 25 µM | > 25 µM | > 25 µM | > 25 µM | > 25 µM | > 25 µM |
| C=CCNC(=S)Nc1sc2c(c1C(=O)OCC)CC(C)CC2 (stereo not given) | 68.6 µM | 43.5 µM | 53.6 µM | 47.1 µM | > 100 µM | > 100 µM | 76 µM | 46.7 µM | 30.7 µM | 44.1 µM |
| C1=C\SS/C=C\SS/C=C\SS/C=C\SS/1 | > 100 µM | > 100 µM | > 100 µM | > 100 µM | 55.8 µM | > 100 µM | > 100 µM | > 100 µM | > 100 µM | > 100 µM |
| CCc1nn(CN2CCN(C)CC2)c(=S)n1/N=C\c1ccc(-c2ccc([N+](=O)[O-])cc2)o1 | > 100 µM | > 100 µM | > 100 µM | > 100 µM | > 100 µM | > 100 µM | > 100 µM | > 100 µM | > 100 µM | > 100 µM |
| CCOC(=O)c1cccc(NC(=O)CCl)c1 | 15.9 µM | 14.1 µM | 7.46 µM | 14.1 µM | 12.4 µM | > 30.1 µM | 16.9 µM | 6.85 µM | 3.69 µM | 7.93 µM |
| Cc1ccc(S(=O)(=O)N/N=C/c2oc(-c3cccc([N+](=O)[O-])c3)c(-c3cccc([N+](=O)[O-])c3)c2[N+](=O)[O-])cc1 | 67.1 µM | > 100 µM | 45.8 µM | > 100 µM | > 100 µM | > 100 µM | > 100 µM | 49.3 µM | > 100 µM | > 100 µM |
| O=C1N[C@H]2c3c(Cl)sc(Cl)c3/C(=N/O)[C@H]2O1 | > 100 µM | > 100 µM | > 100 µM | > 100 µM | > 100 µM | > 100 µM | > 100 µM | > 100 µM | > 100 µM | > 100 µM |
| CN1C/C(=C\c2cccs2)C2=NC(=S)NC(c3cccs3)C2C1 (stereo not given) | > 100 µM | > 100 µM | 54.2 µM | > 100 µM | > 100 µM | > 100 µM | > 100 µM | > 100 µM | > 100 µM | > 100 µM |
| O=C(O)c1ccccc1.[Ag] | > 23.5 µM | 10.2 µM | > 100 µM | 43.7 µM | 49.5 µM | > 72.7 µM | 45.1 µM | 32.3 µM | 19.5 µM | 37 µM |
| Clc1ccc2c(SCC3CO3)c3ccccc3nc2c1 (stereo not given) | 7.19 µM | 9.3 µM | 4.56 µM | 3.23 µM | 3.34 µM | > 100 µM | 10.4 µM | > 100 µM | 9.07 µM | 9.55 µM |
| Cc1ccc(C2CC(=O)CC(c3ccc(C)cc3)C23C(=O)NC(=O)NC3=O)cc1 (stereo not given) | > 100 µM | > 100 µM | > 100 µM | > 100 µM | > 100 µM | > 100 µM | > 100 µM | > 100 µM | > 100 µM | > 100 µM |
| O=C(Nc1cccc2ccccc12)Oc1ccccc1C1CCCCC1 | 81.9 µM | 29.8 µM | 57 µM | 34.1 µM | 33.9 µM | 32.5 µM | 32.1 µM | 30.5 µM | 28.8 µM | 34.3 µM |
| O=C(CP(c1ccccc1)c1ccccc1)c1cccc(C(=O)CP(c2ccccc2)c2ccccc2)c1 | 67.4 µM | > 100 µM | 61.5 µM | > 100 µM | > 100 µM | > 100 µM | > 100 µM | > 100 µM | > 100 µM | > 100 µM |
| O=C(O)[C@H]1[C@@H](C2CCCCC2)O[C@@H](C2CCCCC2)O[C@H]1C(F)(F)F | 45.3 µM | 96.1 µM | 46.9 µM | 44 µM | 88.1 µM | 45.5 µM | 47.4 µM | 41.2 µM | 44.4 µM | 38.8 µM |
| COC(=O)N1CC2(CO)C3CC=C(C(=O)Nc4ccccc4Br)C2C1C3Br (stereo not given) | > 50 µM | > 50 µM | > 50 µM | > 50 µM | > 50 µM | > 50 µM | > 50 µM | > 50 µM | > 50 µM | > 50 µM |
| CCOC(=O)c1cn(-c2ccccc2)c(=S)n2c1nc1ccccc12 | > 100 µM | > 100 µM | 84.6 µM | > 90.8 µM | > 100 µM | > 100 µM | > 100 µM | > 100 µM | > 89.6 µM | 96.9 µM |
